The nature of series [1]: Inhibition of ST2/IL-33 (unknown origin) interaction incubated for 1 hr by AlphaLISA assay. On the set-up: species or system Homo sapiens. In general terms: Bead proximity is the source of the signal in Alpha formats.
A short description of series [2]: Inhibition of ST2/IL-33 (unknown origin) interaction in HEK-Blue IL-33 cells assessed as reduction in NF-kapaB activation by measuring SEAP reporter level incubated for 20 hrs by QUANTI-Blue reagent based assay. The settings on record: Homo sapiens, HEK-Blue IL-33, 20 h. The class given is cell-based.
The nature of series [3]: Metabolic stability in pooled human liver microsomes assessed as half life at 1 uM incubated for 60 mins in presence of NADPH by LC-MS/MS analysis. The series is classed as ADME, Microsome. Background: Microsomes from liver hold many membrane-bound enzymes, among them those of drug oxidation.
Series [4] can be described thus: Metabolic stability in pooled CD-1 mouse liver microsomes assessed as half life at 1 uM incubated for 60 mins in presence of NADPH by LC-MS/MS analysis. The series is classed as ADME, Microsome.
The nature of series [5]: Cytotoxicity against HEK-Blue IL-33 cells assessed as reduction in cell viability at upto 333 uM incubated for 20 hrs by CellTiter 96 aqueous one solution cell proliferation assay. The series is classed as toxicity, cell-based. As to conditions: human, hek-blue il-33, 20 h.
Series [6] can be described thus: Reduction in expansion of C57BL/6 mouse tolerogenic CD4-positive […] regulatory T cells at 1 to 10 uM incubated for 7 days in presence of T cell-depleted and irradiated splenocytes from allogeneic C3H.SW mouse by mixed lymphocyte reaction assay relative to control. As to conditions: dose 1-10 µM, time 7 day. Set-up: scale not given: the % may be the effect or the level left. The class given is functional.

Series [7] can be described thus: Half life in CD-1 mouse at 40 mg/kg, ip measured for 7 hrs by LC-MS/MS analysis. The series is classed as ADME, organism-based. As to conditions: in vivo.
Another series deals with CD4+ve Th. As to the kind of experiment: Inhibition of cell proliferation in C57BL/6 mouse spleen CD4-positive T cells at 1 to 10 uM incubated for 7 days in presence of T cell-depleted and irradiated splenocytes from allogeneic C3H.SW mouse by mixed lymphocyte reaction assay. The series is classed as functional, cell-based. The settings on record: dose 1-10 µM, time 7.0 day.

In a further series the test system is T-cell. Briefly: Induction of expansion of C57BL/6 mouse tolerogenic CD4-positive […] regulatory T cells incubated for 7 days in presence of T cell-depleted and irradiated splenocytes from allogeneic C3H.SW mouse by mixed lymphocyte reaction assay. The series is classed as functional, cell-based. The settings on record: dose 1-10 µM, time 7.0 day, DDE = dose-dependent effect.

The test system of a further series is CD8-positive T cell. Briefly: Inhibition of cell proliferation in C57BL/6 mouse spleen CD8-positive T cells at 1 to 10 uM incubated for 7 days in presence of T cell-depleted and irradiated splenocytes from allogeneic C3H.SW mouse by mixed lymphocyte reaction assay. The class given is functional, cell-based. The settings on record: dose 1-10 µM, time 7.0 day.

The source made the active and inactive calls.

Turning to `COC(=O)Cc1cccc(C2CCCN2Cc2ccc(-c3ccccc3[N+](=O)[O-])o2)c1` (centres undefined), the 50% inhibitory concentration (IC50) in series [1] is 53 µM.
On the same count and under the same terms, next, `O=[N+]([O-])c1ccccc1-c1ccc(CN2CCCC2c2ccccc2)o1` (centres undefined): 97.6 µM.
Turning to `COc1ccc(-c2ccc(CN3CCC[C@@H]3c3ccc(N(C)C)cc3)o2)c([N+](=O)[O-])c1`, the values for the IC50 in [2] and in series [1] were 56.4 µM and 10.4 µM, respectively.
Take `COc1ccc(C2CCCN2Cc2ccc(-c3ccccc3C#N)o2)cc1` (centres undefined): the IC50 in series [1] was 116 µM.
Molecule `COc1ccc(C2CCCN2Cc2ccc(-c3ccccc3F)o2)cc1` (centres undefined) had an IC50 in series [1] of 115 µM.
Turning to `O=[N+]([O-])c1ccccc1-c1ccc(CN2CCCC2c2ccc(N3CCCCC3)cc2)o1` (centres undefined), the half-life at 1 µM in [3] was 1.95 min; in [4], 1.29 min. The 50% inhibitory concentration (IC50) was found to be 53.8 µM in [2] and 21.5 µM in [1].
Turning to `Cc1ccc(-c2ccc(CN3CCCC3c3ccc(N(C)C)cc3)o2)c([N+](=O)[O-])c1` (centres undefined), the IC50 in series [2] worked out at 41.4 µM; in series [1], 9.11 µM. Further, the Activity entry in series [5] is “Non-Toxic”.
With `COc1ccc(-c2ccc(CN3CCC[C@H]3c3ccc(N(C)C)cc3)o2)c([N+](=O)[O-])c1`, the IC50 came to 30.6 µM in series [2] and 6.6 µM in series [1].
As for `COc1cccc(C2CCCN2Cc2ccc(-c3ccccc3[N+](=O)[O-])o2)c1` (centres undefined), in series [1], the IC50 amounted to 26.7 µM.
Consider `O=[N+]([O-])c1ccccc1-c1ccc(CN2CCCC2c2cccc(N3CCCC3)c2)o1` (centres undefined), for which the half-life at 1 µM was found to be 2.27 min in series [3] and 5.61 min in [4]. Also, the IC50 is 85.3 µM in series [2] and 6.42 µM in series [1].
Turning to `COc1ccc(C2CCCN2Cc2ccc(-c3ccc([N+](=O)[O-])cc3)o2)cc1` (centres undefined), in series [1], the IC50 was determined as 22.1 µM.
Same read-out and setting: next, `CN(C)Cc1cccc(C2CCCN2Cc2ccc(-c3ccccc3[N+](=O)[O-])o2)c1` (centres undefined): 54.3 µM; `COc1ccc(C2CCCN2Cc2ccc(-c3ccccc3C(N)=O)o2)cc1` (centres undefined): 167 µM.
For `O=C(O)c1ccc(C2CCCN2Cc2ccc(-c3ccccc3[N+](=O)[O-])o2)cc1` (centres undefined), the Activity in series [6] was 10%. The same molecule had an IC50 in [1] of 80.9 µM.
`O=[N+]([O-])c1ccccc1-c1ccc(CN2CCCC2c2ccc(N3CCCC3)cc2)o1` (centres undefined): the half-life at 1 µM is 10.1 min in series [3] and 2.67 min in [4]. For the same molecule, the IC50 came to 62 µM in [2] and 12.9 µM in series [1]. In addition, in series [5], the Activity result was “Non-Toxic”.
For the molecule `CN(C)c1cccc(C2CCCN2Cc2ccc(-c3ccccc3[N+](=O)[O-])o2)c1` (centres undefined), the half-life at 1 µM in series [3] turned out to be 0.57 min; in [4], 0.78 min. For the same molecule, the IC50 in series [2] is 44.7 µM; in [1], 5.46 µM.
With `Cc1cc([N+](=O)[O-])ccc1-c1ccc(CN2CCCC2c2ccc(N(C)C)cc2)o1` (centres undefined), the results for the half-life at 1 µM in [3] and in [4] were 13.7 min and 3.64 min, respectively. Besides, the figures for the IC50 in [2] and in [1] were 42.5 µM and 7.73 µM, respectively. For the same molecule, the t1/2 in series [7] came out at 92.4 min.
`CN(C)c1ccc(C2CCCN2Cc2ccc(-c3ccccc3[N+](=O)[O-])o2)cc1` (centres undefined): the inhibition result with CD4+ve Th and with CD8-positive T cell was “Active” in each case. Besides, the values for the half-life at 1 µM in series [3] and in series [4] were 2.54 min and 0.95 min, respectively. Besides, the IC50 worked out at 33.3 µM in series [2] and 19.6 µM in [1]. For the same molecule, in series [7], the t1/2 came to 224 min. In addition, the values for the Activity result (in series [5]; with T-cell) were “Non-Toxic” and “Dde”, respectively.
Turning to `Cc1ccc([N+](=O)[O-])c(-c2ccc(CN3CCCC3c3ccc(N(C)C)cc3)o2)c1` (centres undefined), the IC50 came to 39.1 µM in series [2] and 8.06 µM in [1]. Moreover, the half-life at 1 µM in [4] was 0.89 min. The Activity entry in series [5] is reported as “Non-Toxic”.
On to `COc1ccc(-c2ccc(CN3CCCC3c3ccc(N(C)C)cc3)o2)c([N+](=O)[O-])c1` (centres undefined), for which the values for the IC50 in series [2] and in series [1] were 48.5 µM and 12.3 µM, respectively. In addition, in series [5], the Activity result was “Non-Toxic”.
In the case of `COc1ccc(C2CCCN2Cc2ccc(-c3cccc([N+](=O)[O-])c3)o2)cc1` (centres undefined), the IC50 in series [1] is 35.4 µM.
On to `Cc1cc([N+](=O)[O-])ccc1-c1ccc(CN2CCC[C@@H]2c2ccc(N(C)C)cc2)o1`, for which the IC50 in series [2] is 53.1 µM; in series [1], 8.11 µM.
Regarding `O=[N+]([O-])c1ccccc1-c1ccc(CN2CCCC2c2cccc(N3CCCCC3)c2)o1` (centres undefined), in [1], the IC50 stood at 7.14 µM.
On the same count and under the same terms, next, `COc1ccccc1C1CCCN1Cc1ccc(-c2ccccc2[N+](=O)[O-])o1` (centres undefined): 23.4 µM.
For `COc1ccc(C2CCCN2Cc2ccc(-c3ccccc3[N+](=O)[O-])o2)cc1` (centres undefined), the half-life at 1 µM in [3] amounted to 1.1 min; in series [4], 0.73 min. Also, the IC50 is 56.4 µM in series [2] and 46.6 µM in series [1]. Besides, the t1/2 in series [7] came out at 85.8 min.
The molecule `COc1ccc(C2CCCN2Cc2ccc(-c3ccccc3C(=O)O)o2)cc1` (centres undefined) showed an IC50 in series [1] of 220 µM.
Turning to `COC(=O)c1ccc(C2CCCN2Cc2ccc(-c3ccccc3[N+](=O)[O-])o2)cc1` (centres undefined), it took 20.6 µM to reach half-maximal inhibition in series [1] (IC50).
`Cc1cc([N+](=O)[O-])ccc1-c1ccc(CN2CCCC2c2cccc(N(C)C)c2)o1` (centres undefined): the half-life at 1 µM was 4.7 min in [3] and 4.2 min in [4]. Further, the IC50 in [1] is 6.12 µM.
In [1], `O=[N+]([O-])c1ccccc1-c1ccc(CN2CCCC2c2ccc3c(c2)OCCO3)o1` (centres undefined) displayed an IC50 of 29.4 µM.
Take `Cc1cc([N+](=O)[O-])ccc1-c1ccc(CN2CCC[C@H]2c2ccc(N(C)C)cc2)o1`: the IC50 in series [2] came to 42.5 µM; in [1], 6.31 µM.
In series [1], `CN(C)c1ccc(C2CCCN2Cc2ccc(-c3ccc(Cl)cc3[N+](=O)[O-])o2)cc1` (centres undefined) had a 50% inhibitory concentration (IC50) of 21.2 µM.

Usually IC50 stands for the concentration that inhibits the measured activity by half. Usually half-life stands for the time needed for the level to fall by half in the phase considered.
